These results are taken from patent US9540385B2, “Pyrrolopyrimidine compounds as kinase inhibitors” (Pharmacyclics LLC, priority 2012, dated 2017).

Common to all, as to type: biochemical
What all share (conditions): kinase assay by one of methods A, B or C

Assay [1] addresses T1, BTK (Homo sapiens, UniProt Q06187).
T1 construct: purified from insect cells as a full-length construct containing a N-terminal 6×-His tag; His6 (N); made in house; host or cells: insect cells (baculovirus, Sf21)
Nature of the assay: Btk in vitro inhibitory activity / inhibition of a panel of kinases (TR-FRET, mobility shift or radiometric filter binding). The procedure: (§1) Btk kinase activity is determined using a time-resolved fluorescence resonance energy transfer (TR-FRET) methodology. Measurements are performed in a reaction volume of 50 μL using 96-well assay plates. Kinase enzyme, inhibitor, ATP (at the Km for the kinase), and 1 μM peptide substrate (Biotin-AVLESEEELYSSARQ-NH2) are incubated in a reaction buffer composed of 20 mM Tris, 50 mM NaCl, MgCl2 (5-25 mM depending on the kinase), MnCl2 (0-10 mM), 1 mM DTT, 0.1 mM EDTA, 0.01% bovine serum albumin, 0.005% Tween-20, and 10% DMSO at pH 7.4 for one hour. The reaction is quenched by the addition of 1.2 equivalents of EDTA (relative to divalent cation) in 25 μL of 1× Lance buffer (Perkin-Elmer). Streptavidin-APC (Perkin-Elmer) and Eu-labeled p-Tyr100 antibody (Perkin-Elmer) in 1× Lance buffer are added in a 25 μL volume to give final concentrations of 100 nM and 2.5 nM, respectively, and the mixture is allowed to incubate for one hour. The TR-FRET signal is measured on a multimode plate reader with an excitation wavelength (λEx) of 330 nm and detection wavelengths (λEm) of 615 and 665 nm. Activity is determined by the ratio of the fluorescence at 665 nm to that at 615 nm. For each compound, enzyme activity is measured at various concentrations of compound. Negative control reactions are performed in the absence of inhibitor in replicates of six, and two no-enzyme controls are used to determine baseline fluorescence levels. Inhibition constants, Ki(app), ware obtained using the program BatchKi (Kuzmic et al. (2000), Anal. Biochem. 286:45-50). IC50s are obtained according to the equation: IC50={Ki(app)/(1+[ATP]/Km^ATP)}+[E]total/2;
(§2) For all kinases, [ATP]=Km^ATP, [Btk]total=0.5 nM and [Lck]total=6 nM.
(§3) Kinase activity is measured in vitro using electrophoretic mobility shift assay. The kinase reactions are assembled in a total volume of 25 μL in 384 well plates. The reactions comprise: BTK enzyme (1 nM, N-terminal His6-tagged, recombinant, full-length, human BTK purified from baculovirus Sf21 insect cell system), inhibitor, ATP ([…] the apparent Km for the kinase), fluorescently labeled peptide substrate (1 μM, FAM-GEEPLYWSFPAKKK-NH2) in a reaction buffer composed of 100 mM HEPES, pH7.5, 5 mM MgCl2 1 mM DTT, 0.1% bovine serum albumin, 0.01% Triton X-100, and 1% DMSO. The reaction is incubated for one hour and is quenched by the addition of 45 μL of termination buffer (100 mM HEPES, pH7.5, 0.01% Triton X-100, 30 mM EDTA). The terminated reactions are analyzed using 12 channel LabChip® 3000 microfluidic detection instrument (Caliper Life Sciences). The enzymatic phosphorylation of the peptide results in a change in net charge, enabling electrophoretic separation of product from substrate peptide. As substrate and product peptides are separated, two peaks of fluorescence are observed. Change in the relative fluorescence intensity of the substrate and product peaks is the parameter measured, reflecting enzyme activity. In the presence of an inhibitor, the ratio between product and substrate is altered: the signal of the product decreases, while the signal of the substrate increases.
(§4) Activity in each sample is determined as the product to sum ratio (PSR):P/(S+P), where P is the peak height of the product peptide and S is the peak height of the substrate peptide. For each compound, enzyme activity is measured at various concentrations (12 concentrations of compound spaced by 3× dilution intervals). Negative control samples (0%-inhibition in the absence of inhibitor) and positive control samples (100%-inhibition, in the presence of 20 mM EDTA) are assembled in replicates of four and are used to calculate %-inhibition values for each inhibitor at each concentration. Percent inhibition (Pinh) is determined using following equation: […]
(In general: Time-resolved FRET reads energy transfer from a long-lived donor to a nearby acceptor.)

Assay [2] deals with EGFR (Homo sapiens, UniProt P00533). In words: Inhibition of a panel of kinases: EGFR. The procedure:
as §1, §2, §3, §4

For assay [3], the target named is LCK (Homo sapiens, UniProt P06239). Nature of the assay: Inhibition of a panel of kinases: LCK. The procedure: as §1, §2, §3, §4
LCK, sequence (P06239 whole entry, species assumed): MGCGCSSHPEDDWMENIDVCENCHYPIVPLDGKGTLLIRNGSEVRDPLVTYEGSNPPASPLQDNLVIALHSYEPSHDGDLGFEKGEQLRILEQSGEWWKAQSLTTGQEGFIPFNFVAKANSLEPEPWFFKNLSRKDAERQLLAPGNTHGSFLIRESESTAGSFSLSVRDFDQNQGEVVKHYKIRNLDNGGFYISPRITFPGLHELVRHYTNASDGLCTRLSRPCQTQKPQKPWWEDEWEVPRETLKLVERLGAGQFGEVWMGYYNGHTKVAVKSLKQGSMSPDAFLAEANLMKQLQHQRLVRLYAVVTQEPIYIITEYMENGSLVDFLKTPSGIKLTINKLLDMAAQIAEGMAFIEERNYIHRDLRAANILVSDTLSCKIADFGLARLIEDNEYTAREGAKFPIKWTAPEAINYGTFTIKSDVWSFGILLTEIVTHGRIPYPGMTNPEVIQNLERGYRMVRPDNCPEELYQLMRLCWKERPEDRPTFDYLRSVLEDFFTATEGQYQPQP

T1 sequence (Q06187 whole entry): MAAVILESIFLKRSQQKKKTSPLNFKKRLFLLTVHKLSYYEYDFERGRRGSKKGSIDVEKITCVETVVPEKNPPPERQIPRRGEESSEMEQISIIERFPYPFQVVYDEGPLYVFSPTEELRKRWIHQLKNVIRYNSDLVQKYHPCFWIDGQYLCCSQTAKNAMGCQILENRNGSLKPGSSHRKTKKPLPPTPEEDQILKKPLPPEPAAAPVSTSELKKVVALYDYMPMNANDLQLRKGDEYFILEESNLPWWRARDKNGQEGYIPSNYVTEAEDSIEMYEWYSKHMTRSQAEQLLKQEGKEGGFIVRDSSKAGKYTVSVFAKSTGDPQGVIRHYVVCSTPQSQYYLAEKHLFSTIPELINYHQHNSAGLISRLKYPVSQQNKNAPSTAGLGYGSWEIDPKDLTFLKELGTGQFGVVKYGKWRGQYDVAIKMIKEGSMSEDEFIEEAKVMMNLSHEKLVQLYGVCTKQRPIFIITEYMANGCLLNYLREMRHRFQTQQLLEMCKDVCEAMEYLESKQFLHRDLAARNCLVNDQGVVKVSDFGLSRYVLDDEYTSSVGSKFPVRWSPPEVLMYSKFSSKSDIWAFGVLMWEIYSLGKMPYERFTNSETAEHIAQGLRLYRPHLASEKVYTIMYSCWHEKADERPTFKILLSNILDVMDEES
EGFR, sequence (P00533 25-1210, species assumed): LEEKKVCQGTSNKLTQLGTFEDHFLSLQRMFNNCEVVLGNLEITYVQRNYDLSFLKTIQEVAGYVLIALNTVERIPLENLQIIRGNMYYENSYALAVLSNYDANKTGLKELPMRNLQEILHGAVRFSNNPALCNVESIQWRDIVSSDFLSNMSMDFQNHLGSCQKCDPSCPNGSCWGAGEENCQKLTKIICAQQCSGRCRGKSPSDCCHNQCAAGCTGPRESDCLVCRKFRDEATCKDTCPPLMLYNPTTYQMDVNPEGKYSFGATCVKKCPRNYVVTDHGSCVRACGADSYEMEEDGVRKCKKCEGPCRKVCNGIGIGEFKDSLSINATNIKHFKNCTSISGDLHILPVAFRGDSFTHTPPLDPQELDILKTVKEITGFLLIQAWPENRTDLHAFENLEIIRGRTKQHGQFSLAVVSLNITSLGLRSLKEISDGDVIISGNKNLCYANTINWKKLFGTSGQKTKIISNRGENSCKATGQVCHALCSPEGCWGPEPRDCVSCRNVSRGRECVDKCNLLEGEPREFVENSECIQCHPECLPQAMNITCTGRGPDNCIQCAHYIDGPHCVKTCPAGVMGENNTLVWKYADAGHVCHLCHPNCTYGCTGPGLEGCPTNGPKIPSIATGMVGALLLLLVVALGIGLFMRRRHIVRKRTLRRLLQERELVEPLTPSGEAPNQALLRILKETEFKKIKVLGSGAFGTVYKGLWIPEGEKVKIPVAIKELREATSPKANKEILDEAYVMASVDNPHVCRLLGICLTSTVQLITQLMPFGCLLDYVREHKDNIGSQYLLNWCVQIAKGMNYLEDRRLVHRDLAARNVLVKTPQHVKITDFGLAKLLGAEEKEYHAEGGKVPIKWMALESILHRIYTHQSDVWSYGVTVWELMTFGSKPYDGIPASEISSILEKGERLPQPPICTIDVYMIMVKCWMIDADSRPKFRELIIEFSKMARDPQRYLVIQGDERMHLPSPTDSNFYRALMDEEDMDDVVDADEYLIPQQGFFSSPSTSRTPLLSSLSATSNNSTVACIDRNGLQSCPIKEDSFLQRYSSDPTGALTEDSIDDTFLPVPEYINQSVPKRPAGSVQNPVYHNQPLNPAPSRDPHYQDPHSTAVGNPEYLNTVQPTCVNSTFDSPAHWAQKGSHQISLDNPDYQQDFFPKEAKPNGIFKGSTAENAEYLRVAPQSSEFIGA

Usually IC50 stands for the midpoint of a concentration-inhibition curve. With `CN(C)C/C=C/C(=O)N1CC[C@@H](n2c(F)c(-c3ccc(Oc4ccccc4)cc3)c3c(N)ncnc32)C1` [Compound 13, (R,E)-1-(3-(4-amino-6-fluoro-5-(4-phenoxyphenyl)-7H-pyrrolo[2,3-d]pyrimidin-7-yl)pyrrolidin-1-yl)-4-(dimethylamino)but-2-en-1-one], the values for the IC50 in assay [1], in assay [2] and in assay [3] were < 100 nM, 1000 to 10000 nM and < 100 nM, respectively.

For the molecule `C=CC(=O)N1CC[C@@H](n2c(C)c(-c3ccc(Cl)cc3)c3c(N)ncnc32)C1` [Compound 44, (R)-1-(3-(4-amino-5-(4-chlorophenyl)-6-methyl-7H-pyrrolo[2,3-d]pyrimidin-7-yl)pyrrolidin-1-yl)prop-2-en-1-one], the IC50 in assay [1] is < 100 nM; in assay [2], < 100 nM; in assay [3], 100 to 1000 nM.

In the case of `CN(C(=O)/C=C/CN(C)C1CC1)c1cccc(-n2c(Cl)c(-c3ccc(Cl)cc3)c3c(N)ncnc32)c1` [Compound 23, (E)-N-(3-(4-amino-6-chloro-5-(4-chlorophenyl)-7H-pyrrolo[2,3-d]pyrimidin-7-yl)phenyl)-4-(cyclopropyl(methyl)amino)-N-methylbut-2-enamide], the IC50 in assay [1] was < 100 nM; in assay [2], 1000 to 10000 nM; in assay [3] it was 1000 to 10000 nM.

For `CN(C/C=C/C(=O)N1CC[C@@H](n2c(F)c(-c3ccc(Oc4ccccc4)cc3)c3c(N)ncnc32)C1)C1CC1` [Compound 5, (R,E)-1-(3-(4-amino-6-fluoro-5-(4-phenoxyphenyl)-7H-pyrrolo[2,3-d]pyrimidin-7-yl)pyrrolidin-1-yl)-4-(cyclopropyl(methyl)amino)but-2-en-1-one], the concentration for half-maximal inhibition (IC50) was < 100 nM in assay [1], 1000 to 10000 nM in assay [2] and < 100 nM in assay [3].

Take `C=CC(=O)N1CC[C@@H](n2c(Cl)c(-c3ccc(Cl)cc3)c3c(N)ncnc32)C1` [Compound 39, (R)-1-(3-(4-amino-6-chloro-5-(4-chlorophenyl)-7H-pyrrolo[2,3-d]pyrimidin-7-yl)pyrrolidin-1-yl)prop-2-en-1-one]: the figures for the IC50 in assay [1], in assay [2] and in assay [3] were < 100 nM, < 100 nM and 100 to 1000 nM, respectively.

Regarding `C=CC(=O)N1CC[C@@H](n2c(OC)c(-c3ccc(Cl)cc3)c3c(N)ncnc32)C1` [Compound 46, (R)-1-(3-(4-amino-5-(4-chlorophenyl)-6-methoxy-7H-pyrrolo[2,3-d]pyrimidin-7-yl)pyrrolidin-1-yl)prop-2-en-1-one], the IC50 in assay [1] was < 100 nM; in assay [2] it was < 100 nM; in assay [3], 100 to 1000 nM.

For `CN(C)C/C=C/C(=O)N1CC[C@@H](n2c(Cl)c(-c3ccc(Oc4ccccc4)cc3)c3c(N)ncnc32)C1` [Compound 14, (R,E)-1-(3-(4-amino-6-chloro-5-(4-phenoxyphenyl)-7H-pyrrolo[2,3-d]pyrimidin-7-yl)pyrrolidin-1-yl)-4-(dimethylamino)but-2-en-1-one], the IC50 in assay [1] is < 100 nM; in assay [2], 1000 to 10000 nM; in assay [3] it was < 100 nM.

Consider `Cc1c(-c2ccc(Oc3ccccc3)cc2)c2c(N)ncnc2n1[C@@H]1CCN(C(=O)/C=C/CN(C)C2CC2)C1` [Compound 12, (R,E)-1-(3-(4-amino-6-methyl-5-(4-phenoxyphenyl)-7H-pyrrolo[2,3-d]pyrimidin-7-yl)pyrrolidin-1-yl)-4-(cyclopropyl(methyl)amino)but-2-en-1-one], for which the IC50 in assay [1] is < 100 nM; in assay [2], 1000 to 10000 nM; in assay [3] it was < 100 nM.

Turning to `Cc1c(-c2ccc(Oc3ccccc3)cc2)c2c(N)ncnc2n1[C@@H]1CCN(C(=O)/C=C/CN(C)C)C1` [Compound 15, (R,E)-1-(3-(4-amino-6-methyl-5-(4-phenoxyphenyl)-7H-pyrrolo[2,3-d]pyrimidin-7-yl)pyrrolidin-1-yl)-4-(dimethylamino)but-2-en-1-one], the IC50 in assay [1] was < 100 nM; in assay [2], 1000 to 10000 nM; in assay [3] it was < 100 nM.

Take `CN(C)C/C=C/C(=O)N1CC[C@@H](n2c(Cl)c(-c3ccc(Cl)cc3)c3c(N)ncnc32)C1` [Compound 40, (R,E)-1-(3-(4-amino-6-chloro-5-(4-chlorophenyl)-7H-pyrrolo[2,3-d]pyrimidin-7-yl)pyrrolidin-1-yl)-4-(dimethylamino)but-2-en-1-one]: the IC50 in assay [1] is < 100 nM; in assay [2], 100 to 1000 nM; in assay [3] it was 100 to 1000 nM.

In the case of `CN(C/C=C/C(=O)N1CC[C@@H](n2c(Cl)c(-c3ccc(Oc4ccccc4)cc3)c3c(N)ncnc32)C1)C1CC1` [Compound 8, (R,E)-1-(3-(4-amino-6-chloro-5-(4-phenoxyphenyl)-7H-pyrrolo[2,3-d]pyrimidin-7-yl)pyrrolidin-1-yl)-4-(cyclopropyl(methyl)amino)but-2-en-1-one], the results for the concentration for half-maximal inhibition (IC50) in assay [1], in assay [2] and in assay [3] were < 100 nM, 1000 to 10000 nM and < 100 nM, respectively.

On to `CN(C/C=C/C(=O)N1CC[C@@H](n2c(Cl)c(-c3ccc(Cl)cc3)c3c(N)ncnc32)C1)C1CC1` [Compound 38, (R,E)-1-(3-(4-amino-6-chloro-5-(4-chlorophenyl)-7H-pyrrolo[2,3-d]pyrimidin-7-yl)pyrrolidin-1-yl)-4-(cyclopropyl(methyl)amino)but-2-en-1-one], for which the values for the 50% inhibitory concentration (IC50) in assay [1] and in assay [3] were < 100 nM and 1000 to 10000 nM, respectively.

Take `C=CC(=O)N1CC[C@@H](n2c(F)c(-c3ccc(Cl)cc3)c3c(N)ncnc32)C1` [Compound 42, (R)-1-(3-(4-amino-5-(4-chlorophenyl)-6-fluoro-7H-pyrrolo[2,3-d]pyrimidin-7-yl)pyrrolidin-1-yl)prop-2-en-1-one]: the results for the IC50 in assay [1], in assay [2] and in assay [3] were < 100 nM, < 100 nM and 100 to 1000 nM, respectively.

For `COCCN(C)C/C=C/C(=O)N1CC[C@@H](n2c(C)c(-c3ccc(Oc4ccccc4)cc3)c3c(N)ncnc32)C1` [Compound 61, (R,E)-1-(3-(4-amino-6-methyl-5-(4-phenoxyphenyl)-7H-pyrrolo[2,3-d]pyrimidin-7-yl)pyrrolidin-1-yl)-4-((2-methoxyethyl)(methyl)amino)but-2-en-1-one], the IC50 in assay [1] is < 100 nM.

For `CN(C/C=C/C(=O)N1CC[C@@H](n2c(C#N)c(-c3ccc(Oc4cccc(F)c4)cc3)c3c(N)ncnc32)C1)C1CC1` [Compound 109, (R,E)-4-amino-7-(1-(4-(cyclopropyl(methyl)amino)but-2-enoyl)pyrrolidin-3-yl)-5-(4-(3-fluorophenoxyl)phenyl)-7H-pyrrolo[2,3-d]pyrimidine-6-carbonitrile], the IC50 in assay [1] was < 100 nM.

In the case of `COc1c(-c2ccc(Oc3ccccc3)cc2)c2c(N)ncnc2n1[C@@H]1CCN(C(=O)/C=C/CN(C)C)C1` [Compound 88, (R,E)-1-(3-(4-amino-6-methoxy-5-(4-phenoxyphenyl)-7H-pyrrolo[2,3-d]pyrimidin-7-yl)pyrrolidin-1-yl)-4-(dimethylamino)but-2-en-1-one], the IC50 in assay [1] is < 100 nM.

Turning to `CN(C/C=C/C(=O)N1CC[C@@H](n2c(C#N)c(-c3ccc(Oc4ccccc4)cc3)c3c(N)ncnc32)C1)[C@@H]1CCOC1` [Compound 107, 4-amino-7-((R)-1-((E)-4-(methyl((R)-tetrahydrofuran-3-yl)amino)but-2-enoyl)pyrrolidin-3-yl)-5-(4-phenoxyphenyl)-7H-pyrrolo[2,3-d]pyrimidine-6-carbonitrile], the IC50 in assay [1] is < 100 nM.
